Measured values published in patent publication US20250092065A1, “2-(INDAZOL-5-YL)-6-(PIPERIDIN-4-YL)-1,7-NAPHTHYRIDINE DERIVATIVES AND RELATED COMPOUNDS AS MODULATORS FOR SPLICING NUCLEIC ACIDS AND FOR THE TREATMENT OF PROLIFERATIVE DISEASES” (REMIX THERAPEUTICS INC., priority 2022, published 2025).
Like-named read-outs stand apart in the source and are kept apart here.

Legend:
Target C = assay: HiBiT protein abundance assay, Target C (K562 HiBiT knock-in); type: cell-based, human; settings: HiBiT knock-in K562 cells, 24 hours, top dose 10 μM
Protocol: (§1) Cells were maintained in IMIDM with 10% FBS. Before the assay, cells were diluted with […] growth media (IMIDM+[…] media) and were seeded in a 384-well plate at a density of 10000 cells/well (for each cell line listed in Table 6). Each compound was prepared as a 10-point 3-fold serial dilution in DMSO with the top dose at a final concentration of 10 μM in the well. Unmodified K562 cells were added at the previously specified density with DMSO to serve as an assay baseline and positive control (PC) and DMSO only with the respective modified cell lines was added to the negative control (NC) columns. Final DMSO concentration was kept at or below 0.25%. Treated cell plates were placed in an incubator at 37° C. with […] for 24 hours. After 24 hours, 25 μL of Complete HiBit Lytic reagent was added to each well at room temperature (e.g. one plate requiring 10 mL Lytic Buffer, 100 μL LgBiT Protein, 200 μL Lytic Substrate), shaken for 5 minutes at 600 RPM, then left to sit for 10 minutes for signal to stabilize before reading on a Spark Cyto plate reader (Tecan) with a 500 ms measurement time.
(§2) To determine compound effects on protein abundance of each target in Table 6, the percent response for each respective cell line was calculated at each compound concentration as follows:
(§3) % response=100*(S−PC)(NC−PC)
(§4) For the normalized response at each concentration, a four-parameter logistical regression was fit to the data and the response was interpolated at the […] to determine a concentration for protein abundance at 50% (IC50) the untreated control.

SMN2 mRNA = assay: RT-qPCR splicing assay, SMN2 mRNA; type: cell-based, human; settings: Homo sapiens, canonical junction qPCR panel, Table 4; read-out: SMN2 IC50 (decrease in CJ mRNA levels)
In short: (§5)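 Junction-specific RT-qPCR read-out: CJ and AJ isoform levels, housekeeper-normalized (GAPDH/GUSB/PPIA), ΔΔCt vs DMSO, converted to RQ then % response. Cells: A673 (DMEM/10% FBS, adhered 24 h) or K562 (IMDM/10% FBS). Compound 11-pt 3-fold, top 10 uM, 24 h, 37 °C.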

HTT = assay: HiBiT protein abundance assay, HTT (K562 HiBiT knock-in); type: cell-based, human; settings: HiBiT knock-in K562 cells, 24 hours, top dose 10 μM
Protocol: (§6) Compounds described herein were used to screen for effects on quantitative protein abundance using a HiBit assay system (Promega). Quantitative protein abundance was determined by measuring the protein levels of HiBit-tagged protein targets expressed in cell culture via luminescence using the Nano-Glo HiBiT Lytic Detection System, which uses a split complementation assay format to reconstitute NanoBiT enzyme to generate a luminescent signal. A protein abundance assay was developed such that endogenous protein targets could be modified with the HiBiT peptide tag and their abundance could be assessed after compound treatment. Briefly, K562 cell lines containing a HiBiT-modification were treated with various compounds described herein (e.g., compounds of Formulas (I), or (II)). After treatment for 24 hours, the protein abundance of a specific target was determined by measuring luminescence.
as §1, §2, §3, §4

HTT mRNA = assay: RT-qPCR splicing assay, HTT mRNA canonical (CJ) and alternative (AJ) junction; type: cell-based, human; settings: Homo sapiens; for AC50: HTT alternative junction mRNA, read-out: HTT AJ (increase in AJ mRNA, AC50)
In short: as §5

MYB = assay: HiBiT protein abundance assay, MYB (K562 HiBiT knock-in); type: cell-based, human; settings: HiBiT knock-in K562 cells, 24 hours, top dose 10 μM
Protocol: as §6, §1, §2, §3, §4

K562 cells = assay: Cell Titer Glo 2.0 cell viability (toxicity) assay, K562; settings: 500 cells/well, 72 hours
MYB mRNA = assay: RT-qPCR splicing assay, MYB mRNA canonical (CJ) and alternative (AJ) junction; type: cell-based, human; settings: Homo sapiens; for AC50: MYB alternative junction mRNA, read-out: MYB AJ (increase in AJ mRNA, AC50)
In short: as §5

[1] = HTT canonical junction mRNA, RT-qPCR, read-out: HTT CJ (decrease in CJ mRNA levels, IC50)
[2] = canonical junction qPCR panel, Table 4, read-out: HTT IC50 (decrease in CJ mRNA levels)
[3] = MYB canonical junction mRNA, RT-qPCR, read-out: MYB CJ (decrease in CJ mRNA levels, IC50)
[4] = canonical junction qPCR panel, Table 4, read-out: MYB IC50 (decrease in CJ mRNA levels)

| IC50 (Target C) | IC50 (SMN2 mRNA) | IC50 (HTT) | IC50 (HTT mRNA; [1]) | IC50 (HTT mRNA; [2]) | IC50 (MYB) | IC50 (MYB mRNA; [3]) | IC50 (MYB mRNA; [4]) | Structure (SMILES) | AC50 (HTT mRNA; RT-qPCR) | Effect of Exemplary Compounds on Cell Viability, K562 (K562 cells) | AC50 (MYB mRNA; RT-qPCR) |
| --- | --- | --- | --- | --- | --- | --- | --- | --- | --- | --- | --- |
| 1 to 10 µM | < 0.1 µM | 1 to 10 µM | 1 to 10 µM | 1 to 10 µM | 1 to 10 µM | 0.1 to 1 µM | 0.1 to 1 µM | Cn1cc2cc(-c3ccc4nc(N5CCNC(C)(C)C5)ccc4n3)c(O)cc2n1 [Compound 120] | 1 to 10 µM | B (B represents 100-1000 nM) | 0.1 to 1 µM |
| 1 to 10 µM | 1 to 10 µM | 1 to 10 µM | 1 to 10 µM | 1 to 10 µM | 1 to 10 µM | 0.1 to 1 µM | 0.1 to 1 µM | Cn1cc2cc(-c3ccc4nc(N5CCNC6(CC6)C5)ccc4n3)c(O)cc2n1 [Compound 121] | 1 to 10 µM | C (C represents 1000-9999 nM) | 0.1 to 1 µM |
| < 0.1 µM | < 0.1 µM | < 0.1 µM | < 0.1 µM | < 0.1 µM | 0.1 to 1 µM | 0.1 to 1 µM | 0.1 to 1 µM | Cn1cc2cc(-c3ccc4nc(N5CC6(CNC6)C5)ccc4n3)c(O)cc2n1 [Compound 124] | 0.1 to 1 µM | B (B represents 100-1000 nM) | 0.1 to 1 µM |
| 0.1 to 1 µM | < 0.1 µM | 0.1 to 1 µM | 0.1 to 1 µM | 0.1 to 1 µM | 0.1 to 1 µM | 0.1 to 1 µM | 0.1 to 1 µM | Cn1cc2cc(-c3ccc4nc(N5CCC(N6CCCC6)C5)ccc4n3)c(O)cc2n1 (stereo not shown) [Compound 125] | 0.1 to 1 µM | B (B represents 100-1000 nM) | < 0.1 µM |
| < 0.1 µM | < 0.1 µM | < 0.1 µM | < 0.1 µM | < 0.1 µM | < 0.1 µM | < 0.1 µM | < 0.1 µM | Cn1cc2cc(-c3ccc4nc(N5CCC(NC(C)(C)C)C5)ccc4n3)c(O)cc2n1 (stereo not shown) [Compound 127] | < 0.1 µM | B (B represents 100-1000 nM) | < 0.1 µM |
| 0.1 to 1 µM | < 0.1 µM | 0.1 to 1 µM | 0.1 to 1 µM | 0.1 to 1 µM | 0.1 to 1 µM | 0.1 to 1 µM | 0.1 to 1 µM | CN(C)C1CCN(c2ccc3nc(-c4cc5cn(C)nc5cc4O)ccc3n2)C1 (stereo not shown) [Compound 129] | 0.1 to 1 µM | B (B represents 100-1000 nM) | 0.1 to 1 µM |
| 1 to 10 µM | < 0.1 µM | 1 to 10 µM | 1 to 10 µM | 1 to 10 µM | 1 to 10 µM | 1 to 10 µM | 1 to 10 µM | CCNC1CCN(c2ccc3nc(-c4cc5cn(C)nc5cc4O)ccc3n2)CC1 [Compound 131] | > 10 µM | B (B represents 100-1000 nM) | 1 to 10 µM |
| > 10 µM | > 10 µM | > 10 µM | > 10 µM | > 10 µM | > 10 µM | > 10 µM | > 10 µM | Cn1cc2cc(-c3ccc4nc(N5CCC(NC(C)(C)C)CC5)ccc4n3)c(O)cc2n1 [Compound 132] | > 10 µM | C (C represents 1000-9999 nM) | > 10 µM |
| 1 to 10 µM | < 0.1 µM | 1 to 10 µM | 1 to 10 µM | 1 to 10 µM | 1 to 10 µM | 1 to 10 µM | 1 to 10 µM | CN(C)C1CCN(c2ccc3nc(-c4cc5cn(C)nc5cc4O)ccc3n2)CC1 [Compound 133] | 1 to 10 µM | B (B represents 100-1000 nM) | 0.1 to 1 µM |
| 0.1 to 1 µM | < 0.1 µM | 0.1 to 1 µM | 1 to 10 µM | 1 to 10 µM | 0.1 to 1 µM | 0.1 to 1 µM | 0.1 to 1 µM | Cn1cc2cc(-c3ccc4nc(N5CCNCC5)ccc4n3)c(O)cc2n1 [Compound 136] | 1 to 10 µM | B (B represents 100-1000 nM) | 0.1 to 1 µM |
| 0.1 to 1 µM | < 0.1 µM | 0.1 to 1 µM | 0.1 to 1 µM | 0.1 to 1 µM | 0.1 to 1 µM | 0.1 to 1 µM | 0.1 to 1 µM | C[C@@H]1CC(c2ccc3nc(-c4cc5cn(C)nc5cc4O)ccc3n2)C[C@H](C)N1 (stereo partly shown) [Compound 137] | 1 to 10 µM | B (B represents 100-1000 nM) | 0.1 to 1 µM |
| 0.1 to 1 µM | < 0.1 µM | 0.1 to 1 µM | 0.1 to 1 µM | 0.1 to 1 µM | 0.1 to 1 µM | 0.1 to 1 µM | 0.1 to 1 µM | CCN1CCC(c2ccc3nc(-c4cc5cn(C)nc5cc4O)ccc3n2)CC1 [Compound 138] | 0.1 to 1 µM | B (B represents 100-1000 nM) | 0.1 to 1 µM |
| < 0.1 µM | < 0.1 µM | 0.1 to 1 µM | < 0.1 µM | < 0.1 µM | 0.1 to 1 µM | < 0.1 µM | < 0.1 µM | C[C@H]1C[C@H](c2ccc3nc(-c4cc5cn(C)nc5cc4O)ccc3n2)CCN1 [Compound 139] | < 0.1 µM | B (B represents 100-1000 nM) | < 0.1 µM |
| 0.1 to 1 µM | < 0.1 µM | 0.1 to 1 µM | < 0.1 µM | < 0.1 µM | 0.1 to 1 µM | < 0.1 µM | < 0.1 µM | C[C@H]1C[C@@H](c2ccc3nc(-c4cc5cn(C)nc5cc4O)ccc3n2)CCN1 [Compound 140] | 0.1 to 1 µM | B (B represents 100-1000 nM) | 0.1 to 1 µM |
| 1 to 10 µM | 0.1 to 1 µM | 1 to 10 µM | 1 to 10 µM | 1 to 10 µM | 1 to 10 µM | 0.1 to 1 µM | 0.1 to 1 µM | Cn1cc2c(O)c(-c3cc4ccc(C5CCNCC5)nc4cn3)cc(Br)c2n1 [Compound 141] | 1 to 10 µM | C (C represents 1000-9999 nM) | 1 to 10 µM |
| 0.1 to 1 µM | < 0.1 µM | 0.1 to 1 µM | 0.1 to 1 µM | 0.1 to 1 µM | 0.1 to 1 µM | 0.1 to 1 µM | 0.1 to 1 µM | CN1CCC(c2ccc3nc(-c4cc5cn(C)nc5cc4O)ccc3n2)CC1 [Compound 142] | 0.1 to 1 µM | B (B represents 100-1000 nM) | 0.1 to 1 µM |
| 1 to 10 µM | > 10 µM | > 10 µM | > 10 µM | > 10 µM | > 10 µM | > 10 µM | > 10 µM | COc1cc2nn(C)cc2cc1-c1ccc2c(F)c(C3CCNCC3)ccc2n1 [Compound 143] | > 10 µM | B (B represents 100-1000 nM) | > 10 µM |
